From patent publication US20120270744A1, “METHODS TO DETERMINE IF A SUBJECT WILL RESPOND TO A BCR-ABL INHIBITOR” (Oregon Health & Science University, priority 2007, published 2012)
Read-outs that look alike come from different tables or passages of the source.

What was measured:
[1] = system: newly diagnosed chronic phase CML patients; assay: Cytogenetic response of validation set patients treated with imatinib; format: in vivo, human; conditions: within 12 months, 23 newly diagnosed chronic phase patients
[2] = system: Lin−/CD34+/CD38+ and Lin−/CD34+/CD38− CML cells; assay: Culture of sorted primitive CML cells with imatinib: growth and viability; format: cell-based, human; conditions: 5 μM imatinib, physiological concentrations of cytokines
Protocol: FIGS. 9A-9C are a set of graphs dot plots and digital images of Western blots showing viable cells and phosphotyrosine content following treatment with a BCR-ABL inhibitor. […] (FIG. 9B) After 2 hours, immunoblot analysis of cellular extracts for Crkl phosphorylation was preformed. (FIG. 9C) Aliquots from the same cultures were analyzed by FACS analysis for total cellular phosphotyrosine content. Results were identical after 96 hours of culture.
A combination of lineage-depletion columns and high speed sorting was used to select highly pure populations of Lin−/CD34+/CD38+(enriched for progenitor cells) and Lin−/CD34+/[…] (enriched for stem cells). […] It was concludes that survival of primitive CML cells may not require BCR-ABL kinase activity, implicating BCR-ABL-independent extrinsic or intrinsic mechanisms in the maintenance of viability.

[3] = system: CML CD34+ cells; assay: Centrifugal adhesion assay to fibronectin with fluorescently labeled cells; format: cell-based, human
From the text: (FIG. 10A) Adhesion under the carious conditions. (FIG. 10B) Fold expansion of viable cells. (FIG. 10C) Recovery of CFU-GM.
To reliably quantify adherence we modified the McClay (1981 PNAS 78:4975-9) centrifugal adhesion assay, using fluorescently labeled cells.

[4] = system: patients with CML in chronic phase; conditions: cited from earlier work; for risk of progression to accelerated phase or blast crisis: at 5 years

Cc1ccc(NC(=O)c2ccc(CN3CCN(C)CC3)cc2)cc1Nc1nccc(-c2cccnc2)n1 [imatinib]
patients who achieved CCyR [1]: 74%
viability [2]: viability was maintained
growth (total number of viable cells over time) ([2]; preliminary experiments N=4): reduced to approximately the level of normal cells
spontaneous adhesion to fibronectin ([3]; imatinib 5 micoM, 96 hours culture): further reduced
adhesion to fibronectin ([3]; imatinib in presence of beta1 integrin activating antibody B44): again reduced
projected overall survival ([4]; 60 months of follow-up): 89%
patients who progressed to accelerated phase or blast crisis ([4]; among those who lost response): 7%
risk of progression to accelerated phase or blast crisis ([4]; patients in complete cytogenetic response after 12 months of therapy): 3%
risk of progression to accelerated phase or blast crisis ([4]; patients with primary cytogenetic resistance): 19%
patients with primary cytogenetic resistance (failed to attain a major cytogenetic response) ([4]; at 12 months): approximately 14%
patients who lost their response ([4]; human, in vivo): approximately 16%
cumulative rate of complete cytogenetic response (CCyR, 0% Ph+ metaphases) ([4]; newly diagnosed CML in chronic phase, imatinib as initial therapy, 60 months of follow-up): 87%
